{"source": "ChEMBL document CHEMBL1201862", "about": "“PubChem BioAssay data set” (2004)", "key": {"Bcl-2-related protein A1": {"target": "T1, Bcl-2-related protein A1 (Mus musculus, UniProt Q07440)", "T1 sequence (Q07440 whole entry)": "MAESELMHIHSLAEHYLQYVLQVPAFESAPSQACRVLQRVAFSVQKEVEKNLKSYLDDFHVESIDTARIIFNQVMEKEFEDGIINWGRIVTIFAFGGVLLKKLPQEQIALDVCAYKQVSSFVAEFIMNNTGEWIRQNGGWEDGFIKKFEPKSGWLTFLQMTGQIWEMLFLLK", "format": "functional"}, "[1]": {"target": "T2, Ubiquitin-conjugating enzyme E2 N (Homo sapiens, UniProt P61088)", "T2 sequence (P61088 whole entry)": "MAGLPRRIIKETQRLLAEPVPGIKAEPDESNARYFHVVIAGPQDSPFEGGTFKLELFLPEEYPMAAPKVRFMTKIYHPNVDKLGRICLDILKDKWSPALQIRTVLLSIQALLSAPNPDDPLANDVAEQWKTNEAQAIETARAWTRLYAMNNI", "format": "functional"}, "[2]": {"target": "T2, Ubiquitin-conjugating enzyme E2 N", "format": "functional", "remark": "listed apart in the source"}, "[3]": {"target": "G-protein coupled receptor 55 (Homo sapiens, UniProt Q9Y2T6)", "sequence (Q9Y2T6 whole entry)": "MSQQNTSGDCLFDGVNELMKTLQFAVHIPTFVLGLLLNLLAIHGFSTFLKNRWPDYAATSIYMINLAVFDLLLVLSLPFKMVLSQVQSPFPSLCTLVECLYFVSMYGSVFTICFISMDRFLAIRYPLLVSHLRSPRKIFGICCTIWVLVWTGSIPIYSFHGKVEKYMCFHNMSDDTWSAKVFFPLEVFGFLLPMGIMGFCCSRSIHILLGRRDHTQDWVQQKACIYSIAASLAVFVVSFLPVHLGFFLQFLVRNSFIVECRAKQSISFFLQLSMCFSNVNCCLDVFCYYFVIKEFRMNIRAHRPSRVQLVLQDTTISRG", "assay": "GPR55 antagonists blocking LPI-driven arrestin recruitment, primary screen, imaging, U2OS, beta-arrestin-GFP, LPI agonist (AID 2013);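 also: antagonist potency measured as reduced agonist-driven arrestin aggregation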", "format": "functional"}, "[4]": {"assay": "inhibitors of clade B AD8 Env fusion, dose response, cell-based, cherry-pick (AID 652062);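 also: potency is for inhibitors of fusion seen as a drop in luminescence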", "format": "functional"}, "[5]": {"assay": "inhibitors of HIV Env-driven cell fusion, dose response, cherry-pick (AID 652057)", "format": "functional, cell-based"}, "[6]": {"assay": "off-target signal loss in HeLa-CEM21 co-culture – HeLa F-luc CTL cells, cherry-picked, counter-screen for HIV-1 Env fusion inhibitor project, dose response (AID 652040);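 also: potency for signal decrease marking cytotoxic or nonspecific inhibition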", "format": "functional, cell-based"}, "[7]": {"assay": "CEM21 lymphoblast cell cytotoxicity, dose response, cytotoxicity control for viral fusion inhibitor project, CellTiter-Glo luminescence, cherry-picked (AID 652042);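 also: potency for signal decrease meaning cytotoxicity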", "format": "functional, cell-based"}, "Cytochrome P450 1A2": {"target": "T3, Cytochrome P450 1A2 (Homo sapiens, UniProt P05177)", "T3 sequence (P05177 whole entry)": "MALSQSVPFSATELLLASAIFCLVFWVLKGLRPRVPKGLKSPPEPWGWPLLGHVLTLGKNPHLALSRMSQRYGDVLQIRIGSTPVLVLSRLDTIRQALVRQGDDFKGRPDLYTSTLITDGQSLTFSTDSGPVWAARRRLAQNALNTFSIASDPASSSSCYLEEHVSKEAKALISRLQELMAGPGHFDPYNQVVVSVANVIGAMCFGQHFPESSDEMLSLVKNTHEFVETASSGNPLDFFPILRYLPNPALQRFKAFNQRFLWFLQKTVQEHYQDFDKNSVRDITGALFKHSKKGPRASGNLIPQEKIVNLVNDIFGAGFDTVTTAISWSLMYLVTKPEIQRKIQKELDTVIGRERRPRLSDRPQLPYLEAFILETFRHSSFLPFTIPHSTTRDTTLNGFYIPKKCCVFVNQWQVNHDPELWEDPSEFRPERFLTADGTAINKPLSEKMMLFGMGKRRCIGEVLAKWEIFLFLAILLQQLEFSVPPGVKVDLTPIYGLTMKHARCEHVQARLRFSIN"}, "Cytochrome P450 2D6": {"target": "Cytochrome P450 2D6 (Homo sapiens, UniProt P10635)", "sequence (P10635 whole entry)": "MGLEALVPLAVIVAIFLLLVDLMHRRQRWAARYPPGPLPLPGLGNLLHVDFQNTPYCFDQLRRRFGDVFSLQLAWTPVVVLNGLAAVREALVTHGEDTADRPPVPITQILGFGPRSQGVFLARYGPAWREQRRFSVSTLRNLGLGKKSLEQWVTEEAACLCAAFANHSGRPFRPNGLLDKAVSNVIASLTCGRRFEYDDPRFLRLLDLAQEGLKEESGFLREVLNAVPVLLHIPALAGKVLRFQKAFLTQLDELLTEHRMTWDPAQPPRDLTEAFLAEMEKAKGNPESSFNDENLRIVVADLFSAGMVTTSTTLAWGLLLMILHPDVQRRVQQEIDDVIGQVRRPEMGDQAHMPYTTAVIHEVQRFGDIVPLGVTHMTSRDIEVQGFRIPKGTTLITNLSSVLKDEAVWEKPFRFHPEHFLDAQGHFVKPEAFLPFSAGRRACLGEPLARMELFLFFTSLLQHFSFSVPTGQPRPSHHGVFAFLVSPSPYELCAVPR"}, "Cytochrome P450 2C19": {"target": "Cytochrome P450 2C19 (Homo sapiens, UniProt P33261)", "sequence (P33261 whole entry)": "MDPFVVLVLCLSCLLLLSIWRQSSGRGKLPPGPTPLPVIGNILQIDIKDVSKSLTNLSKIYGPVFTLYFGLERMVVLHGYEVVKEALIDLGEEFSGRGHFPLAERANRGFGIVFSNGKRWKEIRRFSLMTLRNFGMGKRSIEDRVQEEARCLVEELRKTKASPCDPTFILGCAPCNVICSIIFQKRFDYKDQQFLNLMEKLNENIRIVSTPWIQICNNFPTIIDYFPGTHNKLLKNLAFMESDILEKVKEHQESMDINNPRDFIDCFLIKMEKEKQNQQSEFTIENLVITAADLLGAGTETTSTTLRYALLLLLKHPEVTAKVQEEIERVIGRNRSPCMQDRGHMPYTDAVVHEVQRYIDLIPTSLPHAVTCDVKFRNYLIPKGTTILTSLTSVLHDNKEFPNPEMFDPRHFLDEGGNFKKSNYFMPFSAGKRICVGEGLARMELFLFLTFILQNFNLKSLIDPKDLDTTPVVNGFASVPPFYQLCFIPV", "assay": "Cytochrome panel assay with activity outcomes. Panel member name: p450-cyp2c19 Compounds with AC50 equal or less than 10 uM are considered active", "format": "functional"}}, "note": "Active and inactive are the calls of the source.", "data": [{"molecule": "COc1ccc(N(C(=O)c2snc(C(N)=O)c2N)C(C(=O)NC2CCCC2)c2ccco2)cc1", "note": "(stereo not drawn)", "values": [{"measurement": "IC50", "setting": "Bcl-2-related protein A1", "result": "> 20 µM (inactive)"}, {"measurement": "IC50", "setting": "[1]", "result": "8.84 µM (active)"}, {"measurement": "IC50", "setting": "[2]", "result": "8.44 µM (active)"}]}, {"molecule": "Cc1ccc(C(O)(c2ccccc2)c2ccccc2C(C)N(C)C)c(C)c1", "note": "(stereo not drawn)", "values": [{"measurement": "IC50", "setting": "[3]", "result": "0.799 µM (active)"}, {"measurement": "AC50", "setting": "[4]", "result": "30.5 µM (active)"}, {"measurement": "AC50", "setting": "[5]", "result": "20.1 µM (active)"}, {"measurement": "AC50", "setting": "[6]", "result": "39 µM (active)"}, {"measurement": "AC50", "setting": "[7]", "result": "19.6 µM (active)"}]}, {"molecule": "CC1=NN(c2ccccc2)C(=O)[C@@H]1/N=N\\c1ccc([As](=O)(O)O)c(O)c1", "values": [{"measurement": "AC50", "setting": "Cytochrome P450 1A2", "result": "5.01 µM (inconclusive)"}, {"measurement": "AC50", "setting": "Cytochrome P450 2D6", "result": "inconclusive"}]}, {"molecule": "NS(=O)(=O)c1cc(C(=O)O)c(Cl)c([N+](=O)[O-])c1Cl", "values": [{"measurement": "AC50", "setting": "Cytochrome P450 2C19", "result": "inconclusive"}, {"measurement": "AC50", "setting": "Cytochrome P450 1A2", "result": "1.26 µM (inconclusive)"}, {"measurement": "AC50", "setting": "Cytochrome P450 2D6", "result": "inconclusive"}]}]}
